Key:
[1] = tested on: tumour-bearing mice (Murine C-26 adenocarcinoma cells); assay: Bone mineral density in C-26 tumour-bearing mice on experimental diets (experiment A); type: in vivo; conditions: diet added to AIN93-M high protein, day 20, compared to TB on control diet (FIG. 1A)
[2] = tested on: tumour-bearing mice (Murine C-26 adenocarcinoma cells); assay: Plasma calcium levels in C-26 tumour-bearing mice, single or combined ingredients (experiment A); type: in vivo; conditions: diet added to AIN93-M high protein, day 20, compared to TB on control diet (FIG. 1B)

Compound: CC(C)C[C@H](N)C(=O)O [leucine]
- bone mineral density [1]: did not result in significant changes compared to TB
- plasma calcium levels [2]: no effect
